In US8871681B2, “Herbicidal compositions comprising 4-amino-3-chloro-5-fluoro-6-(4-chloro-2-fluoro-3-methoxyphenyl) pyridine-2-carboxylic acid or a derivative thereof and certain sulfonylureas” (Dow AgroSciences LLC, priority 2012, dated 2014):
Where two headings read alike, the source gives them in different places.

Assays:
Test in all cases: Postemergence foliar-applied weed control, direct seeded rice, greenhouse (Example I)
[1] = test system: BRAPP (Brachiaria platyphylla, broadleaf signalgrass); type: in vivo, Brachiaria platyphylla (Griseb.) Nash; conditions: Urochloa platyphylla, post-emergence
In short: (§1)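 Greenhouse-grown plants in loam/sandy loam–grit soil (14 h photoperiod, ~29/26 °C) were sprayed postemergence at the first to fourth true leaf stage. Compound A (acid equivalent basis) and ALS-inhibiting sulfonylureas (active ingredient basis) were applied alone and in combination in 1.25% (v/v) crop oil concentrate at 187 L/ha by track sprayer; controls received solvent blank.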

[2] = test system: IPOHE (Ipomoea hederacea, ivyleaf morningglory); type: in vivo, Ipomoea hederacea Jacq.
In short: as §1

[3] = test system: ECHCG (Echinochloa crusgalli, barnyardgrass); type: in vivo, Echinochloa crusgalli (L.) Beauv.
Text: Seeds or nutlets of the desired test plant species were planted in a soil matrix prepared by mixing a loam or sandy loam soil (e.g., 28.6 percent silt, 18.8 percent clay, and 52.6 percent sand, with a pH of about 5.8 and an organic matter content of about 1.8 percent) and calcareous grit in an 80 to 20 ratio. The soil matrix was contained in plastic pots with a volume of 1 quart and a surface area of 83.6 square centimeters (cm^2). When required to ensure good germination and healthy plants, a fungicide treatment and/or other chemical or physical treatment was applied. The plants were grown for 8-22 days in a greenhouse with an approximate 14 h photoperiod which was maintained at about 29° C. during the day and 26° C. during the night. Nutrients (Peters Excel® 15-5-15 5-Ca 2-Mg and iron chelate) were applied in the irrigation solution as needed and water was added on a regular basis. Supplemental lighting was provided with overhead metal halide 1000-Watt lamps as necessary. The plants were employed for testing when they reached the first through fourth true leaf stage.
Treatments consisted of the acid or esters of 4-amino-3-chloro-5-fluoro-6-(4-chloro-2-fluoro-3-methoxy-phenyl)pyridine-2-carboxylic acid (Compound A), each formulated as an SC, and various herbicidal components alone and in combination. Forms of compound A were applied on an acid equivalent basis.
Other herbicidal components were applied on an active ingredient basis and included acetolactate synthase (ALS)-inhibiting herbicides (sulfonylurea chemical class) azimsulfuron formulated as Gulliver®, bensulfuron-methyl formulated as Londax® 60DF, cyclosulfamuron (technical material), ethoxysulfuron formulated as Sunrice® 15 WDG, flazasulfuron formulated as Katana®, flucetosulfuron formulated as Sukedachi® 1KG G, foramsulfuron formulated as Option®, imazosulfuron formulated as Brazzos® WG, iodosulfuron-methyl-sodium formulated as Hussar®, metsulfuron-methyl formulated as Lorate®, nicosulfuron formulated as Accent®, orthosulfamuron formulated as Strada® WG, primisulfuron-methyl (technical material), propyrisulfuron formulated as Zeta One®, rimsulfuron formulated as Matrix® WG, sulfometuron-methyl formulated as Oust®, and trifloxysulfuron-sodium formulated as Monument® 75WG.
Treatment requirements were calculated based upon the rates being tested, the concentration of active ingredient or acid equivalent in the formulation, and a 12 mL application volume at a rate of 187 L/ha.
For treatments comprised of formulated compounds, measured amounts of compounds were placed individually in 25 mL glass vials and diluted in a volume of 1.25% (v/v) Agri-Dex® crop oil concentrated to obtain 12× stock solutions. […] Application solutions were prepared by adding an appropriate amount of each stock solution (e.g., 1 mL) and diluted to the appropriate final concentrations with the addition of 10 mL of an aqueous mixture of 1.25% (v/v) crop oil concentrate so that the final spray solutions contained 1.25+/−0.05% (v/v) Agrcrop oil concentrate.
For treatments comprised of formulated and technical compounds, weighed amounts of the technical materials were placed individually in 25 mL glass vials and dissolved in a volume of 97:3 v/v acetone/DMSO to obtain 12× stock solutions, and measured amounts of the formulated compounds were placed individually in 25 mL glass vials and diluted in a volume of 1.25% (v/v) crop oil concentrate to obtain 12× stock solutions. […] Application solutions were prepared by adding an appropriate amount of each stock solution (e.g., 1 mL) and diluted to the appropriate final concentrations with the addition of an appropriate amount of an aqueous mixture of 1.5% (v/v) crop oil concentrate so that the final spray solutions contained 1.25% (v/v) crop oil concentrate. […]

COc1c(Cl)ccc(-c2nc(C(=O)O)c(Cl)c(N)c2F)c1F [Compound A Acid, 4-amino-3-chloro-5-fluoro-6-(4-chloro-2-fluoro-3-methoxy-phenyl)pyridine-2-carboxylic acid]
pest or weed control at 4.38 g/ha ([1]; 480 h, 20 DAA, 4.38 gae/ha, read-out: Visual Weed Control (%) Obs): 10% | pest or weed control at 4.38 g/ha ([1]; 504 h, 21 DAA, 4.38 gae/ha, read-out: Visual Weed Control (%) Obs): 40% | pest or weed control at 4.38 g/ha ([1]; 504 h, 21 DAA, 4.38 gae/ha, second series, read-out: Visual Weed Control (%) Obs): 50% | Visual Weed Control (%) Obs ([2]; 20 DAA, 5.3 gae/ha): 0% | Visual Weed Control (%) Obs ([2]; 20 DAA, 10.6 gae/ha): 15% | Visual Weed Control (%) Obs ([2]; 20 DAA, 21.2 gae/ha): 25% | Visual Weed Control (%) Obs ([2]; 21 DAA, 4.38 gae/ha): 25% | Visual Weed Control (%) Obs ([2]; 21 DAA, 8.75 gae/ha): 30% | Visual Weed Control (%) Obs ([2]; 21 DAA, 17.5 gae/ha): 45% | Visual Weed Control (%) Obs ([2]; 22 DAA, 8 gae/ha): 25% | Visual Weed Control (%) Obs ([2]; 22 DAA, 16 gae/ha): 35% | Visual Weed Control (%) Obs ([2]; 22 DAA, 32 gae/ha): 40% | Visual Weed Control (%) Obs ([3]; 21 DAA, 4.38 gae/ha): 15% | Visual Weed Control (%) Obs ([3]; 21 DAA, 8.75 gae/ha): 50%

COCC(=O)OC(c1ncccc1S(=O)(=O)NC(=O)Nc1nc(OC)cc(OC)n1)C(C)F (stereo not shown) [Flucetosulfuron, 1-[3-[[[[(4,6-dimethoxy-2-pyrimidinyl)amino]carbonyl]amino]sulfonyl]-2-pyridinyl]-2-fluoropropyl 2-methoxyacetate]
pest or weed control at 0.05 g/ha ([1]; 504 h, 21 DAA, 0.05 gai/ha, read-out: Visual Weed Control (%) Obs): 0% | pest or weed control at 0.1 g/ha ([1]; 504 h, 21 DAA, 0.1 gai/ha, read-out: Visual Weed Control (%) Obs): 0% | pest or weed control at 0.2 g/ha ([1]; 504 h, 21 DAA, 0.2 gai/ha, read-out: Visual Weed Control (%) Obs): 0% | pest or weed control at 1.7 g/ha ([1]; 528 h, 22 DAA, 1.7 gai/ha, read-out: Visual Weed Control (%) Obs): 0% | Visual Weed Control (%) Obs ([2]; 21 DAA, 0.05 gai/ha): 20% | Visual Weed Control (%) Obs ([2]; 21 DAA, 0.2 gai/ha): 20% | Visual Weed Control (%) Obs ([2]; 22 DAA, 5 gai/ha): 90% | Visual Weed Control (%) Obs ([2]; 22 DAA, 10 gai/ha): 90%

COc1c(Cl)ccc(-c2nc(C(=O)OCc3ccccc3)c(Cl)c(N)c2F)c1F [Compound A Benzyl Ester]
pest or weed control at 4.38 g/ha ([1]; 480 h, read-out: Visual Weed Control (%) Obs, 20 DAA, 4.38 gae/ha): 60% | pest or weed control at 8.75 g/ha ([1]; 480 h, read-out: Visual Weed Control (%) Obs, 20 DAA, 8.75 gae/ha): 75% | pest or weed control at 17.5 g/ha ([1]; 480 h, read-out: Visual Weed Control (%) Obs, 20 DAA, 17.5 gae/ha): 85% | pest or weed control at 4.38 g/ha ([1]; 504 h, read-out: Visual Weed Control (%) Obs, 21 DAA, 4.38 gae/ha): 50% | pest or weed control at 4.38 g/ha ([1]; 504 h, read-out: Visual Weed Control (%) Obs, 21 DAA, 4.38 gae/ha, second series): 50% | pest or weed control at 8.75 g/ha ([1]; 504 h, read-out: Visual Weed Control (%) Obs, 21 DAA, 8.75 gae/ha): 70% | pest or weed control at 8.75 g/ha ([1]; 504 h, read-out: Visual Weed Control (%) Obs, 21 DAA, 8.75 gae/ha, second series): 80% | pest or weed control at 17.5 g/ha ([1]; 504 h, read-out: Visual Weed Control (%) Obs, 21 DAA, 17.5 gae/ha): 80% | pest or weed control at 8 g/ha ([1]; 528 h, read-out: Visual Weed Control (%) Obs, 22 DAA, 8 gae/ha): 50% | pest or weed control at 16 g/ha ([1]; 528 h, read-out: Visual Weed Control (%) Obs, 22 DAA, 16 gae/ha): 90% | pest or weed control at 32 g/ha ([1]; 528 h, read-out: Visual Weed Control (%) Obs, 22 DAA, 32 gae/ha): 85% | Visual Weed Control (%) Obs ([2]; 20 DAA, 4.38 gae/ha): 10% | Visual Weed Control (%) Obs ([2]; 20 DAA, 8.75 gae/ha): 10% | Visual Weed Control (%) Obs ([2]; 20 DAA, 17.5 gae/ha): 25% | Visual Weed Control (%) Obs ([2]; 21 DAA, 4.38 gae/ha): 0% | Visual Weed Control (%) Obs ([2]; 21 DAA, 8 gae/ha): 10% | Visual Weed Control (%) Obs ([2]; 21 DAA, 8.75 gae/ha): 10% | Visual Weed Control (%) Obs ([2]; 21 DAA, 16 gae/ha): 10% | Visual Weed Control (%) Obs ([2]; 21 DAA, 17.5 gae/ha): 30% | Visual Weed Control (%) Obs ([2]; 21 DAA, 32 gae/ha): 45% | Visual Weed Control Obs ([2]; 22 DAA, 8 gae/ha): 10% | Visual Weed Control Obs ([2]; 22 DAA, 16 gae/ha): 10% | Visual Weed Control Obs ([2]; 22 DAA, 32 gae/ha): 35% | Visual Weed Control (%) Obs ([3]; 21 DAA, 4.38 gae/ha): 10%

COC(=O)c1ccccc1CS(=O)(=O)NC(=O)Nc1nc(OC)cc(OC)n1 [Bensulfuron-methyl, methyl 2-[[[[[(4,6-dimethoxy-2-pyrimidinyl)amino]carbonyl]amino]sulfonyl]methyl]benzoate, reference compound]
pest or weed control at 4.38 g/ha ([1]; 504 h, 21 DAA, 4.38 gai/ha, read-out: Visual Weed Control (%) Obs): 0% | pest or weed control at 8.75 g/ha ([1]; 504 h, 21 DAA, 8.75 gai/ha, read-out: Visual Weed Control (%) Obs): 0% | pest or weed control at 17.5 g/ha ([1]; 504 h, 21 DAA, 17.5 gai/ha, read-out: Visual Weed Control (%) Obs): 0% | pest or weed control at 17.5 g/ha ([1]; 504 h, 21 DAA, 17.5 gai/ha, second series, read-out: Visual Weed Control (%) Obs): 0% | pest or weed control at 35 g/ha ([1]; 504 h, 21 DAA, 35 gai/ha, second series, read-out: Visual Weed Control (%) Obs): 0% | Visual Weed Control (%) Obs ([3]; 21 DAA, 17.5 gai/ha): 0% | Visual Weed Control (%) Obs ([3]; 21 DAA, 35 gai/ha): 0% | Visual Weed Control (%) Obs ([3]; 27 DAA, 4.38 gai/ha): 0% | Visual Weed Control (%) Obs ([3]; 27 DAA, 8.75 gai/ha): 0% | Visual Weed Control (%) Obs ([3]; 27 DAA, 17.5 gai/ha): 0%

COC(=O)c1ccccc1S(=O)(=O)NC(=O)Nc1nc(C)nc(OC)n1 [Metsulfuron-methyl, methyl 2-[[[[(4-methoxy-6-methyl-1,3,5-triazin-2-yl)amino]carbonyl]amino]sulfonyl]benzoate, reference compound]
pest or weed control at 7.5 g/ha ([1]; 480 h, 20 DAA, 7.5 gai/ha, read-out: Visual Weed Control (%) Obs): 0% | pest or weed control at 15 g/ha ([1]; 480 h, 20 DAA, 15 gai/ha, read-out: Visual Weed Control (%) Obs): 20%
